This is an account of results in article PMC9412300, “In Vitro Evaluation and Mitigation of Niclosamide’s Liabilities as a COVID-19 Treatment” (Vaccines, 2022).

Values joined by “and” are separate entries in the source; they are usually repeats but may differ in a detail not shown here. Equal values may be shown once. Read-outs that look alike come from different tables or passages of the source. Some results are limits rather than exact numbers.

In data set [1] the test system is SARS-CoV-2 WA1 variant. The experiment in a line: microbe, parasite or virus in culture. The data set is classed as cell-based.
For data set [2], the system named is SARS-CoV-2 B.1.1.7 variant. As to the kind of experiment: microbe, parasite or virus in culture. In kind it is cell-based. The settings on record: for IC50: read-out: Vero-E6 (B.1.1.7) IC50.
Data set [3] relates to SARS-CoV-2 B.1.1.7 variant. As to the kind of experiment: microbe, parasite or virus in culture. In kind it is cell-based.
Data set [4] has as its system SARS-CoV-2 B.1.1.7 variant. The data set is classed as cell-based.
Data set [5] in a line: Cell viability in VeroE6, shortened 24 h infection assay. Particulars: African green monkey, VeroE6 cells infected with SARS-CoV-2, CC50 in shortened assay, VeroE6, 1 h preincubation, 24 h infection, top 10 μM.
[6] abbreviates: Severe acute respiratory syndrome coronavirus 2, NCI-H1437, 48 h.
The mark [7] stands for this setting: Severe acute respiratory syndrome coronavirus 2, Vero C1008, 48 h.
Setting [8] is: VeroE6, B.1.1.7, 156, 313, 625 nM niclosamide vs viral control.

In the case of `O=C(Nc1ccc(Br)cc1Cl)c1cc(Cl)ccc1O` [Compound 34], the IC50 in data set [1] (read-out: H1437 (WA1) IC50) worked out at 3.49 µM; in data set [2] it was 0.76 µM.
Turning to `CC(C)(C)c1ccc(O)c(C(=O)Nc2ccc(C(=O)O)cc2F)c1` [Compound 15], the “H1437 (WA1) IC50” value in data set [1] was “Inverted”. Moreover, the IC50 in data set [2] is > 20 µM.
For the compound `O=C(O)c1ccc(NC(=O)c2cc(C3CCCCC3)ccc2O)c(Cl)c1` [Compound 22], in data set [1], the “H1437 (WA1) IC50” value is on record as “Inverted” and the “exacerbation of infection in H1437 (inverted concentration-response curves at high concentrations)” value (shortened to “exacerbation of infection in H1437”) is on record as “exacerbate infection”. For the same compound, the IC50 in data set [2] was determined as 4.51 µM.
For `O=C(Nc1ccc([N+](=O)[O-])cc1Cl)c1cc(Cl)ccc1O` [Niclosamide], the “selectivity index (CC50/IC50), H1437” value in data set [3] was 1.67 and < 2. In addition, the half-maximal inhibitory concentration (IC50) worked out at 0.261 µM in data set [3] (Severe acute respiratory syndrome coronavirus 2, NCI-H1437); 16.8 µM in data set [1] (setting [6]); 0.564 µM in data set [2] (setting [7]). Moreover, the “selectivity index (CC50/IC50), VeroE6” value in data set [2] was 1.86 and < 2. In addition, the “maximum size of syncytia (max area of viral objects)” value in data set [4] (setting [8]) is on record as “decreased”. In data set [4] (setting [8]), the “number of individually infected cells within a well (viral objects per well)” value was “reduced”. The “N protein intensity of remaining viral objects” value in data set [4] (VeroE6, B.1.1.7, escalating concentrations 156, 313, 625 nM) is “increased”. Moreover, in data set [5], the CC50 at 25 h is > 10 µM.
As to `COC(=O)c1ccc(NC(=O)c2cc(C(C)(C)C)ccc2O)c(Cl)c1` [Compound 13], the IC50 in data set [1] (read-out: H1437 (WA1) IC50) and in data set [2] was > 20 µM each time.
With `COc1ccc(O)c(C(=O)Nc2ccc([N+](=O)[O-])cc2Cl)c1` [Compound 4], the IC50 in data set [1] (read-out: H1437 (WA1) IC50) is 10.9 µM; in data set [2], 1.77 µM.
As for `COC(=O)c1ccc(NC(=O)c2cccc(C(C)(C)C)c2O)c(Cl)c1` [Compound 25], in data set [1], the “H1437 (WA1) IC50” value was “Inverted” and the “exacerbation of infection in H1437” value is listed as “exacerbate infection”. The IC50 in data set [2] was > 20 µM.
As for `Cc1cc(NC(=O)c2cc(C(C)(C)C)cc(C(C)(C)C)c2O)ccc1C(=O)O` [Compound 27], the IC50 in data set [2] worked out at 16.5 µM.
Consider `COc1ccc(O)c(C(=O)Nc2ccc([N+](=O)[O-])cc2Cl)c1` [Compound 12], for which the IC50 in data set [1] (read-out: H1437 (WA1) IC50) came out at 16.9 µM; in data set [2], 1.5 µM.
Consider `O=C(O)c1ccc(NC(=O)c2cc(Cl)ccc2O)c(Cl)c1` [Compound 8], for which, in data set [1], the “H1437 (WA1) IC50” value is given as “Inverted” and the “exacerbation of infection in H1437” value was “exacerbate infection”. Further, the half-maximal inhibitory concentration (IC50) in data set [2] is > 20 µM.
On to `N#Cc1ccc(NC(=O)c2cc(Cl)ccc2O)c(Cl)c1` [Compound 24], for which the IC50 came to 1.07 µM in data set [1] (setting [6]) and 0.348 µM in data set [2] (setting [7]).
For the compound `CC(C)(C)c1ccc(O)c(C(=O)Nc2ccc(C(=O)O)cc2Cl)c1` [Compound 14], in data set [1], the “H1437 (WA1) IC50” value is “Inverted”. Besides, the IC50 in data set [2] is > 20 µM.
Turning to `CC(C)(C)c1cc(C(=O)Nc2ccc(C(=O)O)cc2Cl)c(O)c(C(C)(C)C)c1` [Compound 26], the IC50 in data set [1] (read-out: H1437 (WA1) IC50) and in data set [2] was > 20 µM each time.
As for `COC(=O)c1ccc(NC(=O)c2cc(Cl)ccc2O)c(Cl)c1` [Compound 7], in data set [1], the “H1437 (WA1) IC50” value was “Inverted” and the “exacerbation of infection in H1437” value is listed as “exacerbate infection”. In addition, the concentration for half-maximal inhibition (IC50) in data set [2] (setting [7]) turned out to be 0.334 µM.
On to `CC(C)(C)c1cc(C(=O)Nc2ccc(N)cc2Cl)c(O)c(C(C)(C)C)c1` [Compound 19], for which the “H1437 (WA1) IC50” value in data set [1] is recorded as “Inverted”. In addition, the half-maximal inhibitory concentration (IC50) in data set [2] is > 20 µM.
For `CC(C)(C)c1cc(C(=O)Nc2ccc(NS(C)(=O)=O)cc2Cl)c(O)c(C(C)(C)C)c1` [Compound 18] the same measures were “Inverted” and > 20 µM.
Take `CC(C)(C)c1cccc(C(=O)Nc2ccc(N)cc2Cl)c1O` [Compound 32]: the IC50 in data set [1] (read-out: H1437 (WA1) IC50) and in data set [2] was > 20 µM in each case.
Consider `O=C(Nc1ccc([N+](=O)[O-])cc1Cl)c1ccccc1O` [Compound 2], for which the IC50 was found to be 4.92 µM in data set [1] (setting [6]) and 0.296 µM in data set [2] (setting [7]).
Take `CC(C)(C)c1cccc(C(=O)Nc2ccc([N+](=O)[O-])cc2Cl)c1O` [Compound 31]: the concentration for half-maximal inhibition (IC50) in data set [1] (read-out: H1437 (WA1) IC50) and in data set [2] was > 20 µM throughout.
For the compound `COc1ccc(O)c(C(=O)Nc2ccc(C(=O)O)cc2C)c1` [Compound 28], in data set [1], the “H1437 (WA1) IC50” value is “Inverted”. In addition, the IC50 in data set [2] is > 20 µM.
Turning to `COC(=O)c1ccc(NC(=O)c2cc(C3CCCCC3)ccc2O)c(Cl)c1` [Compound 21], the half-maximal inhibitory concentration (IC50) is > 20 µM in data set [1] (read-out: H1437 (WA1) IC50) and 9.91 µM in data set [2].
In the case of `O=C(Nc1ccc([N+](=O)[O-])cc1Cl)c1cccc(Cl)c1` [Compound 9], the “H1437 (WA1) IC50” value in data set [1] is “complete loss of activity”. The concentration for half-maximal inhibition (IC50) in data set [1] (setting [6]) and in data set [2] (setting [7]) was > 20 µM in each case. Also, in data set [2], the “Vero-E6 (B.1.1.7) IC50” value is reported as “complete loss of activity”.
Regarding `CC(C)(C)c1cccc(C(=O)Nc2ccc(C(=O)O)cc2Cl)c1O` [Compound 30], the “H1437 (WA1) IC50” value in data set [1] is “Inverted”. Besides, the IC50 in data set [2] was > 20 µM.
In the same order, the values of `Cc1cc(C(=O)O)ccc1NC(=O)c1cc(C(C)(C)C)ccc1O` [Compound 16] are “Inverted” and > 20 µM.
`COC(=O)c1ccc(NC(=O)c2cc(C(F)(F)F)ccc2O)c(C)c1` [Compound 23]: the IC50 in data set [1] (read-out: H1437 (WA1) IC50) and in data set [2] was > 20 µM in each case.
With `O=C(Nc1ccccc1Cl)c1cc(Cl)ccc1O` [Compound 5], the concentration for half-maximal inhibition (IC50) was > 20 µM in data set [1] (read-out: H1437 (WA1) IC50) and 0.89 µM in data set [2].
For `Cc1ccc(O)c(C(=O)Nc2ccc([N+](=O)[O-])cc2Cl)c1` [Compound 3] the same measures were 2.6 µM and 1.25 µM.
For `CC(C)(C)c1ccc(O)c(C(=O)Nc2ccc([N+](=O)[O-])cc2Cl)c1` [Compound 11], the half-inhibitory concentration (IC50) turned out to be 3.1 µM in data set [1] (setting [6]) and 0.423 µM in data set [2] (setting [7]).
`COc1ccc(NC(=O)c2cc(Cl)ccc2O)c(Cl)c1` [Compound 10]: in data set [1], the “H1437 (WA1) IC50” value is “Inverted” and the “exacerbation of infection in H1437” value is “exacerbate infection”. In data set [2], the IC50 is 4.25 µM.
Take `Cc1cc(NC(=O)c2cc(C(C)(C)C)cc(C(C)(C)C)c2O)ccc1C(=O)O` [Compound 20]: the IC50 in data set [1] (read-out: H1437 (WA1) IC50) and in data set [2] was > 20 µM each time.
For `CC(C)(C)c1cccc(C(=O)Nc2ccc(NS(C)(=O)=O)cc2Cl)c1O` [Compound 33], in data set [1], the “H1437 (WA1) IC50” value is listed as “Inverted” and the “exacerbation of infection in H1437” value was “exacerbate infection”. Moreover, the concentration for half-maximal inhibition (IC50) in data set [2] worked out at 2.88 µM.
As to `Cc1ccc(NC(=O)c2cc(Cl)ccc2O)c(Cl)c1` [Compound 6], the IC50 in data set [1] (read-out: H1437 (WA1) IC50) was > 20 µM; in data set [2], 0.76 µM.
